Paper PMC9000710, “Synthesis and Hemostatic Activity of New Amide Derivatives” (Molecules, 2022)

Columns and labels:
[1] = tested on: human blood plasma; experiment: Activated partial thromboplastin time (aPTT) clotting assay; assay type: biochemical
Experimental: (§1) Human blood plasma was isolated from fresh buffy coats (collected onto the citrate-dextrose solution—ACD) purchased from the Regional Centre of Blood Donation and Blood Treatment in Lodz, Poland. In the isolation procedure, the buffy coats (60 mL units) were divided into volumes of 10 mL and centrifuged (4000 rpm/15 min) in 15 mL tubes. Next, 1 mL solutions of each amide 1–8 were prepared in distilled water at concentrations of 10, 25, and 50 mg/L. Then, 450 μL of plasma and 50 μL of each amide at the tested concentrations were placed into 1.5 mL vials. The vials were vortexed (Vortex Biosan V-1 plus), incubated at 37 °C on a thermoblock (Dry Block Thermostat Biosan TDB-120), and analyzed using a Kselmed K-3002 OPTIC coagulometer (Grudziądz, Poland), based on the manufacturer’s protocols (described below). The control sample was native blood plasma, untreated with any of the examined substances.
Fifty microliters of control plasma and plasma samples treated with the amides were transferred to measuring cuvettes and placed in the thermoblock module (37 °C) of the coagulometer (KSELMED, K-3002 Optic). Then, 50 μL of Dia-APTT reagent (DIAGON Kft. Hungary; cat. no. 72048) was added. The mixture was incubated for 180 s at 37 °C. Finally, 50 μL of reagent Dia-CaCl2 (DIAGON Kft. Hungary; cat. no. 41192) was added. Measurements were started immediately.

[2] = Hemolysis assay (stability of erythrocytes); assay type: cell-based, human; conditions: male, human, heparinized whole blood diluted with saline (erythrocytes); for hemolysis at 45 min, 5 mg/L / hemolysis at 120 min, 5 mg/L / hemolysis at 240 min, 5 mg/L: c 5 mg/L; for hemolysis at 45 min, 50 mg/L / hemolysis at 120 min, 50 mg/L / hemolysis at 240 min, 50 mg/L: c 50 mg/L; for hemolysis at 45 min, 500 mg/L / hemolysis at 120 min, 500 mg/L / hemolysis at 240 min, 500 mg/L: c 500 mg/L
Experimental: Heparinized whole blood was used from a healthy volunteer. The whole blood (10 mL) was diluted with saline solution (90 mL). For each UV-Vis measurement, 2.5 mL of diluted blood was used. For each blood sample, 1 mL of a saline solution containing hydrochlorides 1–8 at concentrations of 5, 50, and 500 mg/L was added. As a control were used blood samples with the addition of 1% solution of DMSO in saline and 1% solution of SDS in saline. In all cases, the measurements were repeated twice for each concentration. […] The cells were centrifuged, and the absorbance of the supernatant, which contained plasma and lysed erythrocytes, was measured at 540 nm. The percentage of lysis was calculated from a standard curve of lysed erythrocytes treated with SDS [52].

[3] = tested on: human blood plasma; experiment: Thrombin time (TT) clotting assay; assay type: biochemical
Experimental: as §1
Both 100 μL of control plasma and plasma samples treated with the amides were transferred to measuring cuvettes, which were placed in the thermoblock module (37 °C) of the coagulometer (KSELMED K-3002 Optic). Then, 100 μL of thrombin solution (4.5 U/mL, in 0.9% NaCl; Biomed, Lublin, Poland) was added to the cuvette. Measurements were started immediately.

[4] = tested on: human blood plasma; experiment: Clot formation and fibrinolysis (CFF) assay; assay type: biochemical; conditions: for Amax (maximum of fibrin clot absorbance at 360 nm) / VmaxC (of Fibrin Polymerization) / VmaxF (of Fibrin Clot Lysis): control plasma assumed as 100%, mean ± SD, n = 5–7
Source text: The CFF assay enables analysis of both the blood plasma coagulation process and fibrinolysis efficiency. The thrombin enzyme in the reagent mixture initiates blood plasma fibrinogen polymerization, leading to an increase in absorbance in the sample until the maximal absorbance (Amax) is attained. The fibrinolytic activity of blood plasma is induced by the tissue-type plasminogen activator (t-PA). The activation of fibrinolysis in the tested samples leads to fibrin clot degradation and decreases the absorbance to the baseline.
Figure 11 An exemplary curve of blood plasma coagulation and clot lysis recorded during the clot formation and fibrinolysis (CFF) assay. The first step in the CFF test involves activation of the blood plasma coagulation cascade and fibrin clot formation (1). It is characterized by the maximal velocity of the fibrin polymerization parameter (VmaxC). The maximal absorbance (Amax) peak corresponds to the fibrin stabilization phase and is an indicator of fibrin clot thickness (2). The third step of the CFF assay covers the activation of fibrinolytic mechanisms and fibrin clot degradation (3) and is described by the maximal velocity of clot lysis (VmaxF).
Thrombin was purchased from BioMed (Lublin, Poland). A tissue-type plasminogen activator (Actilyse®) was purchased from Boehringer Ingelheim, Ingelheim am Rhein, Germany. Kinetic measurements were executed using a SpectrostarNano microplate spectrophotometer (BMG LabTech, Ortenberg, Germany).
Measurements were performed using a kinetic model, as described in our previous work. Briefly, blood plasma was preincubated with the examined substances (at final concentrations of 10, 25, and 50 mg/L) for 15 min at 37 °C. Then, 100 μL of blood plasma was added to microtiter plate wells, which was followed by 200 μL of the reagent mixture (0.75 U/mL thrombin, 225 ng/mL t-PA and 7.5 mM CaCl2) suspended in tris-buffered saline (0.05 M TBS, 0.9% NaCl; pH 7.4). Measurements of absorbance changes were started immediately and continued for 60 min at 37 °C, λ = 360 nm. The following parameters were used to determine the effects of the examined substances on the coagulation and fibrinolytic properties of the blood plasma: the maximal velocity of fibrinogen polymerization (VmaxC), which is an indicator of the plasma coagulation efficiency; the maximal absorbance (Amax), which is an indicator of the fibrin clot stabilization and its thickness; the maximal velocity of clot lysis (VmaxF), which is an indicator of blood plasma fibrinolytic activity.

[5] = tested on: human blood plasma; experiment: Prothrombin time (PT) clotting assay; assay type: biochemical
Experimental: as §1
Fifty microliters of control plasma and plasma samples treated with the amides were transferred to measuring cuvettes and placed in the thermoblock module (37 °C) of a coagulometer (KSELMED, K-3002 Optic). Then, 100 μL of Dia-PT reagent (DIAGON Kft. Hungary; cat. no. 81100) was added. Measurements were started immediately.

Row | SMILES | melting point | aPTT Time [% of Control] ([1]; c 10 mg/L) | aPTT Time [% of Control] ([1]; c 25 mg/L) | aPTT Time [% of Control] ([1]; c 50 mg/L) | hemolysis at 45 min, 5 mg/L [2] | hemolysis at 120 min, 5 mg/L [2] | hemolysis at 240 min, 5 mg/L [2] | hemolysis at 45 min, 50 mg/L [2] | hemolysis at 120 min, 50 mg/L [2] | hemolysis at 240 min, 50 mg/L [2] | hemolysis at 45 min, 500 mg/L [2] | hemolysis at 120 min, 500 mg/L [2] | hemolysis at 240 min, 500 mg/L [2] | TT Time [% of Control] ([3]; c 10 mg/L) | TT Time [% of Control] ([3]; c 25 mg/L) | TT Time [% of Control] ([3]; c 50 mg/L) | Amax (maximum of fibrin clot absorbance at 360 nm) ([4]; 10 mg/L) | VmaxC (of Fibrin Polymerization) ([4]; 10 mg/L) | VmaxF (of Fibrin Clot Lysis) ([4]; 10 mg/L) | Amax (maximum of fibrin clot absorbance at 360 nm) ([4]; 25 mg/L) | also measured
1 | Cl.NCCCCCC(=O)NCc1ccc(C(=O)O)cc1 [Amide 2, 4-((6-Aminohexanamido)methyl)benzoic acid hydrochloride] | 199 to 201 °C | 98.5 ± 8.0 % of Control | 101.0 ± 13.1 % of Control | 101.9 ± 14.0 % of Control | 0.41% | 0.21% | 0.65% | 0.11% | 0.74% | 0.3% | 1.03% | 0.21% | 0.43% | 99.0 ± 1.8 % of Control | 98.9 ± 4.7 % of Control | 95.9 ± 6.8 % of Control | 105.29 ± 6.41% | 103.26 ± 3.98% | 75.81 ± 17.04 % | 110.74 ± 4.86 % | VmaxC (of Fibrin Polymerization) ([4]; 25 mg/L): 106.30 ± 3.60 %; VmaxF (of Fibrin Clot Lysis) ([4]; 25 mg/L): 79.60 ± 10.55 %; Amax (maximum of fibrin clot absorbance at 360 nm) ([4]; 50 mg/L): 110.77 ± 9.85 %; VmaxC (of Fibrin Polymerization) ([4]; 50 mg/L): 105.59 ± 3.74 %; VmaxF (of Fibrin Clot Lysis) ([4]; 50 mg/L): 85.69 ± 8.80 %; effect on fibrin polymerization (VmaxC) in words ([4]; tested at 10, 25, 50 mg/L): Mild pro-coagulant effects; PT Time [% of Control] ([5]; c 10 mg/L): 97.0 ± 4.8 % of Control; PT Time [% of Control] ([5]; c 25 mg/L): 96.1 ± 2.2 % of Control; PT Time [% of Control] ([5]; c 50 mg/L): 95.5 ± 2.5 % of Control; prothrombin time, effect versus control in words ([5]; two higher concentrations (25 and 50 mg/L)): significantly decreased
2 | Cl.NCC(=O)NCc1ccc(C(=O)O)cc1 [Amide 6, 4-((2-Aminoacetamido)methyl)benzoic acid hydrochloride] | 235 to 238 °C | 96.1 ± 4.2 % of Control | 97.0 ± 3.5 % of Control | 98.3 ± 3.6 % of Control | 0.38% | 0.56% | 0.19% | 0% | 0.11% | 0.2% | 0.41% | 0.68% | 0.31% | 92.5 ± 3.0 % of Control | 92.3 ± 2.5 % of Control | 92.8 ± 4.2 % of Control | 105.45 ± 5.46% | 104.68 ± 3.05 % | 98.41 ± 14.71% | 102.41 ± 5.56% | TT, effect versus control in words ([3]; all used concentrations (10, 25, 50 mg/L)): shorter TT than the control sample; VmaxC (of Fibrin Polymerization) ([4]; 25 mg/L): 103.10 ± 6.82%; VmaxF (of Fibrin Clot Lysis) ([4]; 25 mg/L): 100.06 ± 21.96%; Amax (maximum of fibrin clot absorbance at 360 nm) ([4]; 50 mg/L): 102.15 ± 2.46%; VmaxC (of Fibrin Polymerization) ([4]; 50 mg/L): 101.11 ± 4.77%; VmaxF (of Fibrin Clot Lysis) ([4]; 50 mg/L): 91.08 ± 15.49%; PT Time [% of Control] ([5]; c 10 mg/L): 96.1 ± 4.4 % of Control; PT Time [% of Control] ([5]; c 25 mg/L): 95.8 ± 4.3 % of Control; PT Time [% of Control] ([5]; c 50 mg/L): 93.5 ± 7.1 % of Control
